# Test results from patent publication US11603355B2, “Charged ion channel blockers and methods for use” (Nocion Therapeutics, Inc., priority 2019, dated 2023).
# How the values were obtained:
# [1] = molecular target: T1, NaV1.7 (Homo sapiens, UniProt Q15858); assay: Manual patch clamp, internal block of NaV1.7 current; type: cell-based; conditions: compound in internal solution, HEK293 cells, read-out: Nav1.7 Intracellular Inhibition; for inhibition at 10 µM: % inhibition at 10 μM test concentration; for inhibition at 3 µM: % inhibition at 3 μM test concentration
# T1 construct: expressed in transfected cells; host or cells: HEK293 (tetracycline-inducible)
# Procedure: Representative compounds of the invention were synthesized according to the described methods and tested for the ability to inhibit voltage-gated sodium channels.
# NaV1.7 was expressed in HEK293 cells upon induction with tetracycline. Cells were cultured in DMEM containing 10% dialyzed Fetal Bovine Serum (VWR, Radnor, Pa.), 1% Glutamax (VWR, Radnor, Pa.), 1% Penicillin-Streptomycin (VWR, Radnor, Pa.), 100 mg/L Hygromycin (Thermo Fisher Scientific, Waltham, Mass. and 5 mg/L Blasticidin (Alfa Aesar, Haverhill, Mass.). Cells were grown and maintained at 37° C. in a humidified environment containing 10% CO2 in air. Cells were detached from the culture flask for passage and harvested using 0.05% Trypsin-EDTA (Thermo Fisher Scientific, Waltham, Mass.). To induce NaV1.7, cells were induced with tetracycline (0.1-1 μg/mL, IBI Scientific, Peosta, Iowa) the day before recording and plated onto 24-well plates. Cells were washed with DPBS (VWR, Radnor, Pa.), trypsinized and then triturated five times in 10 mL of growth media to break apart cell aggregates. For one 24-well plate, 2 mL of cell suspension was mixed with 23 mL of fresh growth media and 0.1-1 μg/mL tetracycline added. 1 ml of mixed media with cells was then added to each well of a 24-well plate, with a 12 mm coverslip already placed in the bottom of the well. Cells were then incubated in 37° C. and 10% CO2 overnight.
# The intracellular solution contained the following (in mM) CsCl 135, NaCl 10, EGTA 10, HEPES 10, MgCl2 2, adjusted to pH 7.2 with CsOH. The external solution was a normal Ringer solution containing (in mM) NaCl 155, HEPES 10, glucose 10, KCl 3.5, CaCl2 1.5, MgCl2 1 adjusted to pH 7.4 with NaOH. CsCl is from Alfa Aesar, Haverhill, Mass. All other chemicals are from Sigma-Aldrich, St. Louis, Mo. In order to test the degree of internal block by test compounds the compounds were dissolved in internal solution at the indicated test concentration. […] In order to test the degree of external block by test compounds the compounds were dissolved in external solution at the indicated test concentration.
# 18-24 hours after cells were induced with tetracycline, coverslips were placed into a chamber filled with Normal Ringer solution at room temperature and the chamber placed on a microscope. Pipettes were pulled from borosilicate glass on a P97 puller (Sutter Instrument, Novato, Calif.) and polished with a MF-830 Microforge (Narishige International USA, Inc., Amityville, N.Y.) to have a resistance of 1.5-2.5 MΩ when filled with CsCl internal solution at room temperature. Healthy cells (those that are round and translucent with no visible blemishes) were chosen for seal formation. A seal was formed between the pipette and the cell, and a brief pulse of suction was used to “break in” and establish the whole-cell configuration. The membrane potential was held at −100 mV before the voltage protocol began. Only cells with series resistance between 1.5-5 MΩ were retained for analysis. The voltage protocol was as follows: Cells were held at −100 mV for 12 ms followed by a hyperpolarizing step to −105 mV for 12 ms to monitor the leak. Cells were then stepped back to −100 mV for 40 ms. Cells were then depolarized to −20 mV for 10 ms and then returned to −100 mV for 26 ms.
# Once the recording was started, the voltage protocol was run at 30 second intervals for 5 minutes to get a stable baseline. This was followed by four 30-second periods of 5 Hz stimulation of the same voltage protocol separated by 1 minute of rest which was then followed by 0.33 Hz stimulation after the last train. Currents were recorded using PatchMaster software with Heka EPC10 (HEKA Electronics, Lambrecht, Germany). Only cells with inward current amplitudes at −20 mV between 400 pA and 4 nA were accepted. In addition, cells having leak currents greater than 10% of their current amplitudes were discarded. […]
# [2] = PAMPA membrane permeability assay; type: in vitro ADME; conditions: permeability coefficient, pH 7.4 buffer, GIT lipid, 4 hours incubation
# Procedure: The PAMPA assay (pION, Inc., Woburn Mass.) was used to determine the ability of compounds of the invention to cross an artificial lipid membrane by passive diffusion. Test compounds were dissolved in DMSO (10 mM) and diluted 200-fold in buffer (pION Inc., pH 7.4) to provide 50 uM stock solutions. Buffer (150 μL) was added to a UV blank plate and stock solutions (150 μL) were transferred to a UV reference plate. The blank and reference spectrum were read using a spectrophotometer. Stock solutions (200 μL) were added to the donor plate of the PAMPA sandwich plate and an accept plate painted with GIT lipid (pION Inc, 5) was placed on top. Buffer (200 μL) was added to the acceptor plate and the PAMPA sandwich plate was incubated for 4 hours. Aliquots (150 μL) from the acceptor plate were added to a UV plate and read as acceptor spectrum. Aliquots (150 μL) of the donor solutions were added to a UV analysis plate and read as donor spectrum. The permeability coefficient of test compounds was calculated using PAMPA Explorer™ software (version 3.5.0.4) based on the AUC of the reference plate, the donor plate, and the acceptor plate.
# The PAMPA permeability results (10^−6 cm/s) of representative compounds are reported as “+” (<0.1 10^−6 cm/s), “++” (0.1-2.0 10^−6 cm/s), “+++” (2.0-10.010^−6 cm/s) or “++++” (>10.0 10^−6 cm/s).
# T1 sequence (Q15858 whole entry): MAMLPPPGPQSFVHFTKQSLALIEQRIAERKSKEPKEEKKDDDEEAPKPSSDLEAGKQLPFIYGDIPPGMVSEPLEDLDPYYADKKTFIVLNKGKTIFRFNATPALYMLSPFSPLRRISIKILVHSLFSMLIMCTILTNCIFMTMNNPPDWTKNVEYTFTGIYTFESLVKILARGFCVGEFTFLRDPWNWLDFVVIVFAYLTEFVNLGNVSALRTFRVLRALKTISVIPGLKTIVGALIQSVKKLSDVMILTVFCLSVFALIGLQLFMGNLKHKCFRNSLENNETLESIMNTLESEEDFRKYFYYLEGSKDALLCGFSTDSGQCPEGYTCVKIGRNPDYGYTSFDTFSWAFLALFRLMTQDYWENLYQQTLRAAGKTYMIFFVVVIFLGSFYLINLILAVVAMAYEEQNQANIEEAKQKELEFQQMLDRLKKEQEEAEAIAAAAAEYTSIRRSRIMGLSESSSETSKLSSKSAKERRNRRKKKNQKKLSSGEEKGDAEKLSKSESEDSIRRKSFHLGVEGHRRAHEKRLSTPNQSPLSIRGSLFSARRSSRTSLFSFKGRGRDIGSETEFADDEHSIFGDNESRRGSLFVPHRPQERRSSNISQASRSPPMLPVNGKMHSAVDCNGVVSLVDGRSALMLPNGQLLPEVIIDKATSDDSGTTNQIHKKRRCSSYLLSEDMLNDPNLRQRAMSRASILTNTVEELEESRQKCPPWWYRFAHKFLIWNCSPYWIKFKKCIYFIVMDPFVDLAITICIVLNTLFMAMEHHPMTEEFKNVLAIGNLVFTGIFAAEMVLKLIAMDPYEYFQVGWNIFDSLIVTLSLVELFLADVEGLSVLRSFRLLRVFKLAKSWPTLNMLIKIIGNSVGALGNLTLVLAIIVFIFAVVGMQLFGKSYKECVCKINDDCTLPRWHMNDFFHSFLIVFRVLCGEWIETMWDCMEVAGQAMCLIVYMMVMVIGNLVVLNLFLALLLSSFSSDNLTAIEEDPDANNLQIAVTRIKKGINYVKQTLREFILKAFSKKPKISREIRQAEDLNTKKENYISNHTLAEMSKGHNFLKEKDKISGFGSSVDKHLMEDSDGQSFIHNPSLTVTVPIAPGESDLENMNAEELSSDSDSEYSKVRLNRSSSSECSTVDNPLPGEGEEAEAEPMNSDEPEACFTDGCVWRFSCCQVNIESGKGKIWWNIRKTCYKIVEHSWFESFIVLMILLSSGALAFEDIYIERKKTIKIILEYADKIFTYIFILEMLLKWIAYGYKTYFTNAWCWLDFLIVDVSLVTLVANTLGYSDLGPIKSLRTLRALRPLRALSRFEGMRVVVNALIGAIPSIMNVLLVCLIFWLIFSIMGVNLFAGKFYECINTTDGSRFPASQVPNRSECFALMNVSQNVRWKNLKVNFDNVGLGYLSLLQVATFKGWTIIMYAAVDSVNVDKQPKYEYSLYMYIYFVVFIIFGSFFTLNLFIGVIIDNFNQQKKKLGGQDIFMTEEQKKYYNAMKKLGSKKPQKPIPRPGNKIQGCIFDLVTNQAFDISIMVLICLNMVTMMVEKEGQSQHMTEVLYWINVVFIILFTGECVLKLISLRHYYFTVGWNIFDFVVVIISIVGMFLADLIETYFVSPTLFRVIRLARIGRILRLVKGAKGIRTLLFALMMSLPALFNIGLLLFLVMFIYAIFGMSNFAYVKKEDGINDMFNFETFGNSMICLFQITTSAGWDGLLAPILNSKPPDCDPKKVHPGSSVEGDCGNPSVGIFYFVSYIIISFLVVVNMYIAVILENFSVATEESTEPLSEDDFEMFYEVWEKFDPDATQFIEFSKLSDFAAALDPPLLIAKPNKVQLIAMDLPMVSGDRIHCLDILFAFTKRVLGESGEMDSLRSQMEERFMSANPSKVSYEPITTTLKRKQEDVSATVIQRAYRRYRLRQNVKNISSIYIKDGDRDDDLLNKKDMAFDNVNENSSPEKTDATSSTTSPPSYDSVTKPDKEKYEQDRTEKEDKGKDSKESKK
Structure (SMILES),inhibition at 10 µM [1] [%],PAMPA (10^−6 cm/s) [2],inhibition at 3 µM [1] [%]
CCC(C(=O)Nc1c(C)cccc1C)[N+]1(Cc2cccc(F)c2)CCCCC1 (stereo not shown) [Compound 8A],70 to 95,+ (“+” (<0.1 10^−6 cm/s)),–
Cc1cccc(C)c1N1CCCC([N+]2(Cc3ccccc3)CCCCCC2)C1=O (stereo not shown) [Compound 93A],–,+ (“+” (<0.1 10^−6 cm/s)),70 to 90
CCC(C(=O)Nc1c(C)cccc1C)[N+]1(Cc2ccc(OC)cc2)CCCCC1 (stereo not shown) [Compound 22A],70 to 95,–,70 to 90
CCc1ccc(C[N+]2(C(CC)C(=O)Nc3c(C)cccc3C)CCCCC2)cc1 (stereo not shown) [Compound 19A],40 to 70,+ (“+” (<0.1 10^−6 cm/s)),–
"CCC(C(=O)Nc1c(C)cccc1C)[N+]1(Cc2ccccc2)CCCCCC1.[Br-] (stereo not shown) [Compound 30A, 1-benzyl-1-(1-((2,6-dimethylphenyl)amino)-1-oxobutan-2-yl) azepan-1-ium bromide]",> 95,+ (“+” (<0.1 10^−6 cm/s)),> 90
CCC(C(=O)Nc1c(C)cccc1C)[N+]1(Cc2ccc(F)cc2)CCCCC1 (stereo not shown) [Compound 7A],70 to 95,+ (“+” (<0.1 10^−6 cm/s)),–
CCC(C(=O)Nc1c(C)cccc1C)[N+]1(Cc2ccccc2C#N)CCCCC1 (stereo not shown) [Compound 15A],> 95,+ (“+” (<0.1 10^−6 cm/s)),–
CCC(C(=O)Nc1c(C)cccc1C)[N+]1(Cc2ccccc2C)CCCCC1 (stereo not shown) [Compound 18A],70 to 95,+ (“+” (<0.1 10^−6 cm/s)),–
CCC(C(=O)Nc1c(C)cccc1C)[N+]1(Cc2cccc(C#N)c2)CCCCC1 (stereo not shown) [Compound 14A],70 to 95,+ (“+” (<0.1 10^−6 cm/s)),–
CCc1ccccc1C[N+]1(C(CC)C(=O)Nc2c(C)cccc2C)CCCCC1 (stereo not shown) [Compound 21A],> 95,+ (“+” (<0.1 10^−6 cm/s)),> 90
"CC[N+](CC)(CC(=O)Nc1c(C)cccc1C)Cc1ccccc1 [Compound 1A, N-benzyl-2-((2,6-dimethylphenyl)amino)-N,N-diethyl-2-oxoethan-1-aminium bromide]",70 to 95,–,–
CCC(C(=O)Nc1c(C)cccc1C)[N+]1(Cc2ccccc2Cl)CCCCC1 (stereo not shown) [Compound 12A],> 95,+ (“+” (<0.1 10^−6 cm/s)),–
"CCC(C(=O)Nc1c(C)cccc1C)[N+]1(Cc2cccc(O)c2)CCCCC1 (stereo not shown) [Compound 29A, 1-(1-((2,6-dimethylphenyl)amino)-1-oxobutan-2-yl)-1-(3-hydroxybenzyl) piperidin-1-ium carbonate]",70 to 95,–,> 90
CCC(C(=O)Nc1c(C)cccc1C)[N+]1(Cc2cccc(Cl)c2)CCCCC1 (stereo not shown) [Compound 11A],> 95,–,–
CCC(C(=O)Nc1c(C)cccc1C)[N+]1(Cc2cccc(C)c2)CCCCC1 (stereo not shown) [Compound 17A],> 95,+ (“+” (<0.1 10^−6 cm/s)),–
"Cc1cccc(C)c1NC(=O)C[N+]1(Cc2ccccc2)CCCC1.[Br-] [Compound 5A, 1-benzyl-1-(2-((2,6-dimethylphenyl)amino)-2-oxoethyl) pyrrolidin-1-ium bromide]",70 to 95,+ (“+” (<0.1 10^−6 cm/s)),> 90
CCC(C(=O)Nc1c(C)cccc1C)[N+]1(Cc2ccsc2)CCCCC1 (stereo not shown) [Compound 26A],70 to 95,+ (“+” (<0.1 10^−6 cm/s)),–
CCC(C(=O)Nc1c(C)cccc1C)[N+]1(Cc2cc(C)on2)CCCCC1 (stereo not shown) [Compound 27A],70 to 95,+ (“+” (<0.1 10^−6 cm/s)),–
"Cc1cccc(C)c1NC(=O)C[N+]1(Cc2ccccc2)CCCCCCC1.[Br-] [Compound 31A, 1-benzyl-1-(2-((2,6-dimethylphenyl)amino)-2-oxoethyl)azocan-1-ium bromide]",> 95,+ (“+” (<0.1 10^−6 cm/s)),> 90
"CCCCN(C(=O)OC(C)(C)C)c1ccc(NC(=O)C[N+]2(Cc3ccccc3)CCCCCC2)cc1 [Compound 40A, 1-benzyl-1-(2-((4-((tert-butoxycarbonyl) (butyl)amino)phenyl)amino)-2-oxoethyl) azepan-1-ium bromide]",40 to 70,–,–
CCCCNC(=O)C1CCC[N+](CC(=O)Nc2c(C)cccc2C)(Cc2ccccc2)C1.[Br-] (stereo not shown) [Compound 59A],70 to 95,+ (“+” (<0.1 10^−6 cm/s)),< 40
CCc1cccc(C[N+]2(C(CC)C(=O)Nc3c(C)cccc3C)CCCCC2)c1 (stereo not shown) [Compound 20A],> 95,+ (“+” (<0.1 10^−6 cm/s)),> 90
CCC(C(=O)Nc1c(C)cccc1C)[N+]1(Cc2ccc(C#N)cc2)CCCCC1 (stereo not shown) [Compound 13A],70 to 95,+ (“+” (<0.1 10^−6 cm/s)),–
CCC(C(=O)Nc1c(C)cccc1C)[N+]1(Cc2ccc(Cl)cc2)CCCCC1 (stereo not shown) [Compound 10A],70 to 95,+ (“+” (<0.1 10^−6 cm/s)),–
"CCCCNc1cc(C)c(NC(=O)C(CC)[N+]2(Cc3ccccc3)CCCCC2)c(C)c1 (stereo not shown) [Compound 43A, 1-benzyl-1-(1-((4-(butylamino)-2,6-dimethylphenyl)amino)-1-oxobutan-2-yl) piperidin-1-ium carbonate]",70 to 95,–,–
CCC(C(=O)Nc1c(C)cccc1C)[N+]1(Cc2cnc(C)s2)CCCCC1 (stereo not shown) [Compound 25A],40 to 70,–,–
"CCC(C(=O)Nc1c(C)cccc1C)[N+]1(Cc2ccccc2OC)CCCCC1 (stereo not shown) [Compound 24A, 1-(1-((2,6-dimethylphenyl)amino)-1-oxobutan-2-yl)-1-(2-methoxybenzyl) piperidin-1-ium bromide]",> 95,–,> 90
"CCC(C(=O)Nc1c(C)cccc1C)[N+]1(Cc2ccccc2O)CCCCC1 (stereo not shown) [Compound 28A, 1-(1-((2,6-dimethylphenyl)amino)-1-oxobutan-2-yl)-1-(2-hydroxybenzyl) piperidin-1-ium 2,2,2-trifluoroacetate]",40 to 70,–,< 40
"CCCCNc1ccc(NC(=O)C[N+]2(Cc3ccccc3)CCCCC2)cc1.O=C([O-])O [Compound 42A, 1-benzyl-1-(2-((4-(butylamino)phenyl)amino)-2-oxoethyl) piperidin-1-ium carbonate]",–,++ (“++” (0.1-2.0 10^−6 cm/s)),–
